Measured values reported in the supplement of paper PMC10307832.

Assays:
Assay in all cases: relative viability (nuclei count vs DMSO), 5 days (fraction); higher = more cells survive
Carfilzomib + Foretinib = compound: CC(C)C[C@H](NC(=O)[C@H](CCc1ccccc1)NC(=O)CN1CCOCC1)C(=O)N[C@@H](Cc1ccccc1)C(=O)N[C@@H](CC(C)C)C(=O)[C@@]1(C)CO1 [Carfilzomib] + COc1cc2c(Oc3ccc(NC(=O)C4(C(=O)Nc5ccc(F)cc5)CC4)cc3F)ccnc2cc1OCCCN1CCOCC1 [Foretinib] (partner 0.25 µM)
Procedure, shortened: (§1)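 The day after seeding in 1536-well plates, lung cancer cell lines were treated by pin tool with a single drug, or with a fixed anchor-drug dose together with five library-drug doses (not always all listed) in √10 steps. After 5 days, a combined fix-and-stain solution (final 0.05% Triton X-100, 1% formaldehyde, 1 ug/ml Hoechst) was added. Nuclei counted on 4× images gave relative viability as treated counts over vehicle counts, reported as the median of duplicate plates.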

Carfilzomib + Tozasertib = compound: CC(C)C[C@H](NC(=O)[C@H](CCc1ccccc1)NC(=O)CN1CCOCC1)C(=O)N[C@@H](Cc1ccccc1)C(=O)N[C@@H](CC(C)C)C(=O)[C@@]1(C)CO1 [Carfilzomib] + Cc1cc(Nc2cc(N3CCN(C)CC3)nc(Sc3ccc(NC(=O)C4CC4)cc3)n2)n[nH]1 [Tozasertib] (partner 0.1 µM)
Procedure, shortened: as §1

Carfilzomib + Pemetrexed = compound: CC(C)C[C@H](NC(=O)[C@H](CCc1ccccc1)NC(=O)CN1CCOCC1)C(=O)N[C@@H](Cc1ccccc1)C(=O)N[C@@H](CC(C)C)C(=O)[C@@]1(C)CO1 [Carfilzomib] + Nc1nc2[nH]cc(CCc3ccc(C(=O)N[C@@H](CCC(=O)O)C(=O)O)cc3)c2c(=O)[nH]1 [Pemetrexed] (partner 0.2 µM)
Procedure, shortened: as §1

Crizotinib + Bortezomib = compound: C[C@@H](Oc1cc(-c2cnn(C3CCNCC3)c2)cnc1N)c1c(Cl)ccc(F)c1Cl [Crizotinib] + CC(C)C[C@H](NC(=O)[C@H](Cc1ccccc1)NC(=O)c1cnccn1)B(O)O [Bortezomib] (partner 0.002 µM)
Procedure, shortened: as §1

Row | Cell Line | relative viability (Carfilzomib + Foretinib; first compound 0.001 µM) | relative viability (Carfilzomib + Foretinib; first compound 0.003162 µM) | relative viability (Carfilzomib + Foretinib; first compound 0.01 µM) | relative viability (Carfilzomib + Foretinib; first compound 0.03162 µM) | relative viability (Carfilzomib + Foretinib; first compound 0.1 µM) | relative viability (Carfilzomib + Tozasertib; first compound 0.001 µM) | relative viability (Carfilzomib + Tozasertib; first compound 0.003162 µM) | relative viability (Carfilzomib + Tozasertib; first compound 0.01 µM) | relative viability (Carfilzomib + Tozasertib; first compound 0.03162 µM) | relative viability (Carfilzomib + Tozasertib; first compound 0.1 µM) | relative viability (Carfilzomib + Pemetrexed; first compound 0.001 µM) | relative viability (Carfilzomib + Pemetrexed; first compound 0.003162 µM) | relative viability (Carfilzomib + Pemetrexed; first compound 0.01 µM) | relative viability (Carfilzomib + Pemetrexed; first compound 0.03162 µM) | relative viability (Carfilzomib + Pemetrexed; first compound 0.1 µM) | relative viability (Crizotinib + Bortezomib; first compound 0.01 µM) | relative viability (Crizotinib + Bortezomib; first compound 0.03162 µM) | relative viability (Crizotinib + Bortezomib; first compound 0.1 µM) | relative viability (Crizotinib + Bortezomib; first compound 1 µM) | relative viability (Crizotinib + Bortezomib; first compound 0.3162 µM)
1 | NCI-H441 | 0.878 | 0.977 | 0.61 | 0.199 | 0.349 | 0.6 | 0.626 | 0.49 | 0.193 | 0.247 | 0.26 | 0.257 | 0.244 | 0.134 | 0.133 | 0.689 | 0.419 | 0.764 | 0.355 | 
2 | NCI-H460 | 0.97 | 1.05 | 0.988 | 0.75 | 0.0297 | 0.363 | 0.51 | 0.48 | 0.512 | 0.0337 | 0.0648 | 0.0611 | 0.0649 | 0.0671 | 0.0245 | 1.08 | 1.07 | 1.01 | 1.1 | 1.2
3 | NCI-H520 | 0.781 | 0.999 | 0.695 | 0.17 | 0.203 | 0.515 | 0.492 | 0.371 | 0.227 | 0.259 | 0.664 | 0.712 | 0.568 | 0.169 | 0.131 | 0.492 | 0.5 | 0.586 | 0.331 | 0.522
4 | NCI-H596 | 0.813 | 0.84 | 0.812 | 0.195 | 0.148 | 1.16 | 0.878 | 0.721 | 0.222 | 0.168 | 0.486 | 0.519 | 0.421 | 0.329 | 0.244 | 0.894 | 1.18 | 1.1 | 0.947 | 1.45
5 | NCI-H647 | 1.19 | 1.33 | 1.26 | 0.0352 | 0.0362 | 0.452 | 0.378 | 0.171 | 0.141 | 0.0292 | 0.193 | 0.179 | 0.126 | 0.0407 | 0.0343 | 0.638 | 1.01 | 0.827 | 0.943 | 0.94
6 | NCI-H650 |  | 1.27 | 1.03 | 0.71 | 0.174 |  | 0.9 | 0.745 | 0.588 | 0.157 | 0.954 | 1.04 | 1.27 | 0.781 | 0.137 | 0.769 | 0.655 | 0.806 | 0.671 | 0.613
7 | NCI-H661 | 1.05 | 1.16 | 1.07 | 1.06 | 0.377 | 0.367 | 0.313 | 0.364 | 0.373 | 0.255 | 0.925 | 0.948 | 0.902 | 0.903 | 0.415 | 0.759 | 0.768 | 0.72 | 0.817 | 0.777
8 | NCI-H838 | 1.06 | 1.12 | 1.15 | 0.974 | 0.131 | 0.273 | 0.276 | 0.298 | 0.31 | 0.116 | 0.268 | 0.254 | 0.246 | 0.209 | 0.136 | 0.806 | 0.695 | 0.968 |  | 0.863
